Experimental data reported in patent publication US20250152688A1 (priority 2021, published 2025).
“Also recorded” adds a separate entry of the source. Read-outs that look alike come from different tables or passages of the source.

Experiments:
[1] = test system: T-cell clones derived from patients that responded to UV1 vaccination; assay type: cell-based, human; conditions: T-cell clones from UV1 responders tested with overlapping 14-mer peptides
[2] = test system: peripheral blood mononuclear cells (PBMCs); assay type: in vivo, human; conditions: for Patients with immune response against the peptide / UV1 mix: 51 evaluable patients vaccinated with UV1 (NSCLC, prostate cancer, malignant melanoma); for Number of patients that recognised this one peptide only / Responding patients / evaluable patients: patients vaccinated with UV1; for Responding patients / evaluable patients: response against the labelled peptide / mix
[3] = test system: peripheral blood mononuclear cells (PMBCs); assay type: cell-based, human
[4] = test system: HLA-A2/DR1 transgenic mice; assay type: in vivo
vaccinated individuals = conditions: reported in Bernhardt 2006, Inderberg-Suso 2012, Kyte 2011; cited from earlier work
C57BL/6 mice = assay type: in vivo; conditions: 1 nmol SC 3 times, 1 week intervals, blood 9 days post last administration
[5] = test system: B6.129S2-H2-Ab1tm1GruTg(HLADRA/H2-Ea,HLA-DRB1*0401/H2-Eb)1Kito strain mice; assay type: in vivo; conditions: HLA-DR4 mice
[6] = test system: J76 cells transfected with UT1, a TCR specific for SEQ ID NO: 1; assay type: cell-based, human; conditions: 0.5, 1.5 and 5 μM (conjugates in second experiment 0.5, 1.5 and 3 μM); 24 hours; EBV cells as APC
[7] = Vaccination GV1001 + DC (n = 4 + 3)

For “NYERARRPGLLGAS (listed as Homo sapiens) [SEQ ID NO: 18]”, the “HLA Class II allele, T-cell clone recognising the peptide” value (shortened to “HLA Class II allele”) [1] was “p5-clone 109; also recorded: DQ7, clone 8”.

In the case of AERLTSRVKALFSVL [p728], the “Patients with immune response against the peptide / UV1 mix” value (from here on “Patients … against the peptide / UV1 mix”) [2] is reported as 24%, the “Number of patients that recognised this one peptide only” value (shortened to “Number”) [2] is reported as “one” and the “Responding patients / evaluable patients” value [2] is reported as “(12/51)”.

For “ARRPGLLGASVLGL (listed as Homo sapiens) [SEQ ID NO: 22]”, the “HLA Class II allele” value [1] was “DQ7, clone 8,10”.

For LKRVQLRELSEAEVRQ [Conjugate 731], the “No. of positive patients” value [3] was 1, the “T-cell responses to the individual peptide (patients), counted for SEQ ID NO: 116” value (“T-cell responses … for SEQ ID NO: 116” below) ([3]; Vaccination GV1001 (n = 4)) was 1 and the “T-cell responses … for SEQ ID NO: 116” value [3, 7] was 1.

For “VLNYERARRPGLIG (VLNYERARRPGLLG; listed as Homo sapiens) [SEQ ID NO: 16]”, the “HLA Class II allele” value [1] was “DR7, clone 15, p5-clone109”.

For EAEVRQHREARPALL [Conjugate 713], the “No. of positive patients” value [3] was 4, the “T-cell responses … for SEQ ID NO: 116” value ([3]; Vaccination DC (n = 3)) was 1 and the “T-cell responses … for SEQ ID NO: 116” value ([3]; Vaccination GV1001 (n = 4)) was 3. The “T-cell responses … for SEQ ID NO: 116” value [3, 7] was 4.

In the case of VTGAYDTIPQDRLTE [Conjugate 732], the “No. of positive patients” value [3] is reported as 1, the “T-cell responses to the individual peptide (patients), counted for SEQ ID NO: 118” value (from here on “T-cell responses … for SEQ ID NO: 118”) ([3]; Vaccination GV1001 (n = 4)) is reported as 1 and the “T-cell responses … for SEQ ID NO: 118” value [3, 7] is reported as 1.

For “LLGASVLGLDDIHR (listed as Homo sapiens) [SEQ ID NO: 27]”, the “HLA Class II allele” value [1] was “DQ2, clone 52”.

For “ALFSVLNYERARRP (listed as Homo sapiens) [SEQ ID NO: 12]”, the “HLA Class II allele” value [1] was “DR12, clone 44, 38, 6”.

With “SVLNYERARRPGLL (listed as Homo sapiens) [SEQ ID NO: 15]” the “HLA Class II allele” value [1] was “DR7, clone 4, 12, 21, 15, 92,; also recorded: p5-clone109”.

With “EARPALLTSRLRFIPK [GV1001, reference compound]” the “SUM of T-cell responses to peptides embedded in the polypeptide” value (shortened to “SUM of T-cell responses”) ([3]; Vaccination DC (n = 3)) was 5, the “SUM of T-cell responses” value ([3]; Vaccination GV1001 (n = 4)) was 7 and the “SUM of T-cell responses” value [3, 7] was 12. The “Immunogenicity in HLA-A2/DR1 transgenic mice (conclusion)” value ([4]; 16.4 nmol peptide with standard adjuvant) was “marginal immune responses”, the “Peptides above the threshold (T cell responses against individual peptides)” value ([4]; 16.4 nmol peptide, female HLA-A2/DR1 mice (n=4), cut off = cells alone) was “UV 57” and the “Peptide recognition by individual vaccinated mice (ELISpot)” value ([4]; 16.4 nmol, mice M9-M12 GV1001 group, M13-M16 UV34 group) was “M9 and 12 did not respond to any of the tested peptides; also recorded: M11 demonstrated a marginal immune response against UV57”. For the same substance, the “Vaccinated individuals with induced immune responses” value (vaccinated individuals) was “at least 50%”.

In the case of “FSVLNYERARRPGL (listed as Homo sapiens) [SEQ ID NO: 14]”, the “HLA Class II allele” value [1] is reported as “p5-clone 109”.

For ARWWWMHHNMDLIGGAKxVAAWTLKAu [HY-PADRE], the “Anti-MTTE IgG1 antibody titres (ELISA)” value (C57BL/6 mice) was “no antibodies to the MTTE sequence”.

For PQDRLTEVIASIIKP [Conjugate 723], the “No. of positive patients” value [3] was 1, the “T-cell responses … for SEQ ID NO: 118” value ([3]; Vaccination DC (n = 3)) was 1 and the “T-cell responses … for SEQ ID NO: 118” value [3, 7] was 1.

For “LNYERARRPGLLGD (LNYERARRPGLLGA; listed as Homo sapiens) [SEQ ID NO: 17]”, the “HLA Class II allele” value [1] was “p5-clone109”.

With “RARRPGLLGASVLG (listed as Homo sapiens) [SEQ ID NO: 21]” the “HLA Class II allele” value [1] was “DQ7, clone 8,10”.

With “RRPGLLGASVLGLD (listed as Homo sapiens) [SEQ ID NO: 23]” the “HLA Class II allele” value [1] was “DQ7, clone 8,10”.

With LYFVKVDVTGAYDTI [Conjugate 727] the “No. of positive patients” value [3] was 5, the “T-cell responses … for SEQ ID NO: 118” value ([3]; Vaccination DC (n = 3)) was 2 and the “T-cell responses … for SEQ ID NO: 118” value ([3]; Vaccination GV1001 (n = 4)) was 3. The “T-cell responses … for SEQ ID NO: 118” value [3, 7] was 5.

In the case of “GLLGASVLGLDDIH (listed as Homo sapiens) [SEQ ID NO: 26]”, the “HLA Class II allele” value [1] is reported as “DQ2, clone 52”.

For RPALLTSRLRFIPKP [Conjugate 714], the “No. of positive patients” value [3] was 7, the “T-cell responses to the individual peptide (patients), counted for GV1001” value (from here on “T-cell responses … for GV1001”) ([3]; Vaccination DC (n = 3)) was 3 and the “T-cell responses … for SEQ ID NO: 116” value ([3]; Vaccination DC (n = 3)) was 3. The “T-cell responses … for GV1001” value ([3]; Vaccination GV1001 (n = 4)) was 4, the “T-cell responses … for SEQ ID NO: 116” value ([3]; Vaccination GV1001 (n = 4)) was 4 and the “T-cell responses … for GV1001” value [3, 7] was 7. The “T-cell responses … for SEQ ID NO: 116” value [3, 7] was 7.

For “LESVLNYERARRPG (LFSVLNYERARRPG; listed as Homo sapiens) [SEQ ID NO: 13]”, the “HLA Class II allele” value [1] was “p5-clone109”.

In the case of “ALFSVLNYERARRPGLLGASVLGLDDIHRA [p719-20]”, the “Patients … against the peptide / UV1 mix” value [2] is reported as 65%, the “Patients … against the peptide / UV1 mix” value ([2]; listed as SEQ ID NO. 1) is reported as 65% and the “Percentage of patients carrying the allele who responded to SEQ ID NO. 1” value (shortened to “Percentage … to SEQ ID NO. 1”) ([2]; HLA-DPB1*01:01) is reported as 14%. For the same substance, the “Percentage … to SEQ ID NO. 1” value ([2]; HLA-DPB1*04:01) was 64%, the “Percentage … to SEQ ID NO. 1” value ([2]; HLA-DPB1*04:02) was 71% and the “Percentage … to SEQ ID NO. 1” value ([2]; HLA-DQB1*03:02) was 46%. For the same substance, the “Percentage … to SEQ ID NO. 1” value ([2]; HLA-DQB1*05:01) was 67%, the “Percentage … to SEQ ID NO. 1” value ([2]; HLA-DQB1*06:02) was 72% and the “Percentage … to SEQ ID NO. 1” value ([2]; HLA-DRB1*04:01) was 50%. For the same substance, the “Percentage … to SEQ ID NO. 1” value ([2]; HLA-DRB1*07:01) was 90%, the “Percentage … to SEQ ID NO. 1” value ([2]; HLA-DRB1*15:01) was 89% and the “Responders in 7 of the 9 most common HLA class II haplotypes” value ([2]; UV1-vaccinated patients) was greater than 50%. The “Number” value [2] was 13, the “Responding patients / evaluable patients” value [2] was “(33/51)” and the “HLA Class II allele” value [1] was “All clones”. The Responding mice ([5]; 22 nmol dose) was “all mice appear to respond”, the “IFN-γ ELISpot spots on restimulation with SEQ ID NO: 1” value ([5]; 30 μg (9 nmol) with CpG 1826 25 μg in IFA, prime boost, n=8) was “significant increase in the number of spots compared to cells alone” and the “GFP-expressing T-cells specific for SEQ ID NO: 1 (T-cell activation)” value [6] was “activate the T cells equally well”.

With “YERARRPGLLGASV (listed as Homo sapiens) [SEQ ID NO: 19]” the “HLA Class II allele” value [1] was “DQ7, clone 8”.

For “LYFVKVDVTGAYDTIPQDRLTRVIASIIKP (listed as Homo sapiens) [SEQ ID NO: 118]”, the “Total of positive patients over peptides sharing at least 8 amino acids with the polypeptide” value ([3]; GV1001 (n=4) + DC (n=3) vaccinated patients) was “Total = 9”, the “SUM of T-cell responses” value ([3]; Vaccination DC (n = 3)) was 4 and the “SUM of T-cell responses” value ([3]; Vaccination GV1001 (n = 4)) was 5. The “SUM of T-cell responses” value [3, 7] was 9.

With FIPKPDGLRPIVNMD [Conjugate 715] the “No. of positive patients” value [3] was 3, the “T-cell responses … for SEQ ID NO: 116” value ([3]; Vaccination DC (n = 3)) was 2 and the “T-cell responses … for SEQ ID NO: 116” value ([3]; Vaccination GV1001 (n = 4)) was 1. The “T-cell responses … for SEQ ID NO: 116” value [3, 7] was 3.

For TSRLRFIPKPDGLRP [Conjugate 730], the “No. of positive patients” value [3] was 5, the “T-cell responses … for GV1001” value ([3]; Vaccination DC (n = 3)) was 2 and the “T-cell responses … for SEQ ID NO: 116” value ([3]; Vaccination DC (n = 3)) was 2. The “T-cell responses … for GV1001” value ([3]; Vaccination GV1001 (n = 4)) was 3, the “T-cell responses … for SEQ ID NO: 116” value ([3]; Vaccination GV1001 (n = 4)) was 3 and the “T-cell responses … for GV1001” value [3, 7] was 5. For the same substance, the “T-cell responses … for SEQ ID NO: 116” value [3, 7] was 5.

In the case of “PGLLGASVLGLDDI (listed as Homo sapiens) [SEQ ID NO: 25]”, the “HLA Class II allele” value [1] is reported as “DQ2, clone 52”.

With ELYFVKVDVEGAYDT [Conjugate 726] the “No. of positive patients” value [3] was 2, the “T-cell responses … for SEQ ID NO: 118” value ([3]; Vaccination DC (n = 3)) was 1 and the “T-cell responses … for SEQ ID NO: 118” value ([3]; Vaccination GV1001 (n = 4)) was 1. The “T-cell responses … for SEQ ID NO: 118” value [3, 7] was 2.

With RTFVLRVRAQDPPPE [p725] the “Patients … against the peptide / UV1 mix” value [2] was 39%, the “Number” value [2] was “one” and the “Responding patients / evaluable patients” value [2] was “(20/51)”.

With “ERARRPGLLGASVL (listed as Homo sapiens) [SEQ ID NO: 20]” the “HLA Class II allele” value [1] was “DQ7, clone 8,10”.
